In this test the test system is MCF7. The experiment in a line: Antiproliferative activity evaluated against MCF-7 cell line. Type of test: functional, cell-based. Conditions: Homo sapiens.
For orientation: IC50 means the concentration at which inhibition is half-maximal. Read a high IC50 as weaker potency. As to `CCCCCn1c(Cc2cc(OC)c(OC)c(OC)c2)nc2c(N)nc(F)nc21`, the IC50 is 36.3 µM.
For `CCCCn1c(Cc2cc(OC)c(OC)c(OC)c2)nc2c(N)nc(F)nc21` the value was 24 µM; for `COc1cc(Cc2nc3c(N)ncnc3n2CC(C)C)cc(OC)c1OC`, 97.7 µM.
For the molecule `COc1cc(Cc2nc3c(N)ncnc3n2CC2CC2)cc(OC)c1OC`, the IC50 was 75.9 µM.
With `CC#CCCn1c(Cc2cc(OC)c(OC)c(OC)c2)nc2c(N)nc(F)nc21`, the IC50 was 37.2 µM.
The value for `C#CCCCn1c(Cc2cc(OC)c(OC)c(OC)c2)nc2c(N)nc(F)nc21` was 11 µM.
In turn, `COc1cc(Cc2nc3c(N)ncnc3n2CCOC(C)C)cc(OC)c1OC` gave an IC50 of 38.9 µM.
As to `CC/C=C/Cn1c(Cc2cc(OC)c(OC)c(OC)c2)nc2c(N)ncnc21`, the IC50 is 46.8 µM.
Molecule `C=CCCn1c(Cc2cc(OC)c(OC)c(OC)c2)nc2c(N)nc(F)nc21` gave an IC50 of 33.1 µM. The IC50 values of the last two molecules are within 1.5-fold of each other.
`CC/C=C\Cn1c(Cc2cc(OC)c(OC)c(OC)c2)nc2c(N)ncnc21`: the IC50 was 64.6 µM. Compared with the last molecule, the IC50 is about 2-fold higher.
Turning to `COc1cc(Cc2nc3c(N)ncnc3n2CC2CCC2)cc(OC)c1OC`, the IC50 was 45.7 µM.
The molecule `CC[C@H](C)Cn1c(Cc2cc(OC)c(OC)c(OC)c2)nc2c(N)nc(F)nc21` showed an IC50 of 43.7 µM.
Regarding `COc1cc(Cc2nc3c(N)nc(F)nc3n2CC2CCCO2)cc(OC)c1OC` (stereo not given), the IC50 is 22.9 µM. This IC50 lies about 1.9-fold lower than the previous one.
For `COc1cc(Cc2nc3c(N)ncnc3n2CC2CCCCC2)cc(OC)c1OC` the value was 39.8 µM.
In the case of `C#CCCn1c(Cc2cc(OC)c(OC)c(OC)c2)nc2c(N)nc(F)nc21`, it took 25.1 µM to reach half-maximal inhibition (IC50).
As to `C=CCCCn1c(Cc2cc(OC)c(OC)c(OC)c2)nc2c(N)nc(F)nc21`, half-maximal inhibition (IC50) was put at 44.7 µM.
In turn, `CCC(CC)Cn1c(Cc2cc(OC)c(OC)c(OC)c2)nc2c(N)ncnc21` had an IC50 of 158 µM.
With `COCCn1c(Cc2cc(OC)c(OC)c(OC)c2)nc2c(N)ncnc21`, the IC50 was 64.6 µM.
Consider `COc1cc(Cc2nc3c(N)ncnc3n2CC2CCCO2)cc(OC)c1OC` (stereo not given), for which the IC50 is 91.2 µM.
On to `COCCn1c(Cc2cc(OC)c(OC)c(OC)c2)nc2c(N)nc(F)nc21`, for which the IC50 is 64.6 µM.
`COc1cc(Cc2nc3c(N)ncnc3n2CCCC(C)C)cc(OC)c1OC` gave an IC50 of 69.2 µM. This IC50 and that of the molecule before are within 1.5-fold of each other.
As for `COc1cc(Cc2nc3c(N)ncnc3n2C)cc(OC)c1OC`, the midpoint of inhibition, the IC50, lay at 70.8 µM.
`COc1cc(Cc2nc3c(N)nc(F)nc3n2CCOC(C)C)c(Cl)c(OC)c1OC` showed an IC50 of 5.37 µM.
For the molecule `COc1cc(Cc2nc3c(N)nc(F)nc3n2CCOC(C)C)cc(OC)c1OC`, the IC50 was 15.8 µM.
The value for `CCCn1c(Cc2cc(OC)c(OC)c(OC)c2)nc2c(N)nc(F)nc21` was 25.1 µM; that for `CCCCn1c(Cc2cc(OC)c(OC)c(OC)c2Br)nc2c(N)ncnc21` was 25.1 µM; that for `C#CCCCn1c(Cc2cc(OC)c(OC)c(OC)c2Cl)nc2c(N)nc(F)nc21` was 2 µM.
`C=CCCn1c(Cc2cc(OC)c(OC)c(OC)c2)nc2c(N)ncnc21` had an IC50 of 40.7 µM.
Take `C#CCCCn1c(Cc2cc(OC)c(OC)c(OC)c2)nc2c(N)ncnc21`: the IC50 is 24 µM.
In turn, `CCC(C)Cn1c(Cc2cc(OC)c(OC)c(OC)c2)nc2c(N)ncnc21` (stereo not given) gave an IC50 of 61.7 µM.
As to `CCCn1c(Cc2cc(OC)c(OC)c(OC)c2)nc2c(N)ncnc21`, half-maximal inhibition (IC50) required 46.8 µM.
`COc1cc(Cc2nc3c(N)ncnc3n2CC2(C)CC2)cc(OC)c1OC` showed an IC50 of 112 µM.
In turn, `C/C=C/Cn1c(Cc2cc(OC)c(OC)c(OC)c2)nc2c(N)ncnc21` showed an IC50 of 51.3 µM. This IC50 is about 2.2-fold lower than that of the molecule before.
For `CCCCCn1c(Cc2cc(OC)c(OC)c(OC)c2)nc2c(N)ncnc21` the value was 61.7 µM; for `CCCCn1c(Cc2cc(OC)c(OC)c(OC)c2)nc2c(N)ncnc21`, 50.1 µM.
In the case of `CCn1c(Cc2cc(OC)c(OC)c(OC)c2)nc2c(N)ncnc21`, the IC50 was 79.4 µM.
For `COc1cc(Cc2nc3c(N)ncnc3n2CC(OC)OC)cc(OC)c1OC` the value was 72.4 µM.
Regarding `CCCCn1c(Cc2cc(OC)c(OC)c(OC)c2Cl)nc2c(N)ncnc21`, the IC50 is 19.1 µM. This IC50 lies about 3.8-fold lower than the previous one.
The molecule `COc1cc(Cc2nc3c(N)nc(F)nc3n2CC2CCC2)cc(OC)c1OC` gave an IC50 of 40.7 µM.
In turn, `CCCCn1c(Cc2c(Br)c(OC)c(OC)c(OC)c2Br)nc2c(N)ncnc21` gave an IC50 of 30.2 µM.

Values taken from ChEMBL document CHEMBL1148272, “3D-QSAR studies on PU3 analogues by comparative molecular field analysis” (Bioorg Med Chem Lett, 2004).
